From paper PMC8688847, “Implications of Membrane Binding by the Fe-S Cluster-Containing N-Terminal Domain in the Drosophila Mitochondrial Replicative DNA Helicase” (Frontiers in Genetics, 2021)

Experiments:
[1] = target: T1, ΔN-helicase (P66) (Homo sapiens, UniProt Q96RR1); experiment: malachite green ATPase assay; assay type: biochemical; conditions: 8 mM Mg acetate, pH 7.5, room temperature
T1 construct: gene TWNK; variant lacking the N-terminus, termed P66 in Ziebarth et al. 2007
T1 sequence (Q96RR1 85-684 limits assumed): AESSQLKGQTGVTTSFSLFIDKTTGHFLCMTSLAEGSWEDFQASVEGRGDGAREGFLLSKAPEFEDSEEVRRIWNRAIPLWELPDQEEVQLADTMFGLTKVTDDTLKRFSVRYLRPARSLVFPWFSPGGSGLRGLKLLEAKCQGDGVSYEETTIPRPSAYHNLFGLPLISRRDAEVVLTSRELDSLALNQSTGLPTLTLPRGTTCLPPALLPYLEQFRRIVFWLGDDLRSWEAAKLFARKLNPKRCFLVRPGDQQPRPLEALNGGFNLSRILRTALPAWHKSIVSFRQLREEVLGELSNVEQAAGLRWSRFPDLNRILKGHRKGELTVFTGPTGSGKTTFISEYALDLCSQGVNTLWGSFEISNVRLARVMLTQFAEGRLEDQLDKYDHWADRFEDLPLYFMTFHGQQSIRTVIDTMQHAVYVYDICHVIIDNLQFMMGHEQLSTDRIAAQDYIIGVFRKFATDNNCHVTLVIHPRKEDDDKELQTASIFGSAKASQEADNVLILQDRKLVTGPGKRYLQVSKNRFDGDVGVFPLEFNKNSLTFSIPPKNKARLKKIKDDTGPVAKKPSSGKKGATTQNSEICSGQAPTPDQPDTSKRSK

[2] = target: T2, FL Hs mtDNA helicase (TWINKLE) (Homo sapiens, UniProt Q96RR1); experiment: malachite green ATPase assay; assay type: biochemical; conditions: 8 mM Mg acetate, pH 7.5, room temperature
T2 construct: gene TWNK; full-length, recombinant, Ni-NTA purified
T2 sequence (Q96RR1 32-684): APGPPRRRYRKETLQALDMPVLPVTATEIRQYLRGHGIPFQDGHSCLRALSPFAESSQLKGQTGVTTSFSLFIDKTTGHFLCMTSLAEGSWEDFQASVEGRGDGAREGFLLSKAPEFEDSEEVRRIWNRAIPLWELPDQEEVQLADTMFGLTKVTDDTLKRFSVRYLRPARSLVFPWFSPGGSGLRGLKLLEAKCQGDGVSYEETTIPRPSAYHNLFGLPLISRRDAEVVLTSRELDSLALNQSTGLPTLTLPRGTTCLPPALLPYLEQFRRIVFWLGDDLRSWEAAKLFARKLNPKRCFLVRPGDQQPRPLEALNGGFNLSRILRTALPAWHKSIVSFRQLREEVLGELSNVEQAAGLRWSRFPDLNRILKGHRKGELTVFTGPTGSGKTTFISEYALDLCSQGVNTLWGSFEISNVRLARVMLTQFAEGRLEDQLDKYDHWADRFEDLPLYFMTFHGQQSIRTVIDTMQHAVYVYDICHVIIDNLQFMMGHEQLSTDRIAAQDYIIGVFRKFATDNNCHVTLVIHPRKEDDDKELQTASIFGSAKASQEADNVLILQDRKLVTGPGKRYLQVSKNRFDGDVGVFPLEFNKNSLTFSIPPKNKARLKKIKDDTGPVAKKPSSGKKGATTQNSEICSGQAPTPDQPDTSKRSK

For `Nc1ncnc2c1ncn2[C@@H]1O[C@H](COP(=O)(O)OP(=O)(O)OP(=O)(O)O)[C@@H](O)[C@H]1O` [ATP], the “malachite green ATPase assay” value [1] was “the ATPase activity of ΔN-helicase, termed P66” and the “malachite green ATPase assay” value [2] was “ATP hydrolysis of FL helicase was increased with added calf thymus DNA”.
